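48-hour exposure; five concentrations; linearly interpolated endpoints. Abbreviation: GI50, concentration required for 50% inhibition of growth.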 The source made the active and inactive calls. No stated cut-off is given here; in the data, active = GI50 up to about 1.1 µM and inactive = higher.
How the values were obtained:
Assay in all cases: NCI anticancer screen, dose series, 48 h
HOP-92 = system: HOP-92
UACC-62 = system: UACC-62
KM-20L2 = system: KM-20L2
HOP-62 = system: HOP-62
NCI-H522 = system: NCI-H522
TK-10 = system: TK-10
HL-60 = system: HL-60
SN12C = system: SN12C
SF-539 = system: SF-539
SF-268 = system: SF-268
KM12 = system: KM12
COLO 205 = system: COLO 205
SW-620 = system: SW-620
OVCAR-5 = system: OVCAR-5
SK-MEL-5 = system: SK-MEL-5
MDA-MB-435 = system: MDA-MB-435
MCF7 = system: MCF7
MDA-MB-231 = system: MDA-MB-231
DU-145 = system: DU-145
BT-549 = system: BT-549

Row | Compound | GI50 (HOP-92) | GI50 (UACC-62) | GI50 (KM-20L2) | GI50 (HOP-62) | GI50 (NCI-H522) | GI50 (TK-10) | GI50 (HL-60) | GI50 (SN12C) | GI50 (SF-539) | GI50 (SF-268) | GI50 (KM12) | GI50 (COLO 205) | GI50 (SW-620) | GI50 (OVCAR-5) | GI50 (SK-MEL-5) | GI50 (MDA-MB-435) | GI50 (MCF7) | GI50 (MDA-MB-231) | GI50 (DU-145) | GI50 (BT-549)
1 | Cc1cc(N(CCC#N)CCC#N)ccc1/C=C1\N=C(c2cc([N+](=O)[O-])ccc2Cl)N(NC(=O)c2ccc(/N=C\c3ccc(N(CCC#N)S(C)(=O)=O)cc3C)cc2)C1=O | 98.9 µM (inactive) | 24.2 µM (inactive) | 58.2 µM (inactive) | 63.5 µM (inactive) | > 100 µM (inactive) | > 100 µM (inactive) | 61.4 µM (inactive) | > 100 µM (inactive) | > 100 µM (inactive) | > 100 µM (inactive) | > 100 µM (inactive) | > 100 µM (inactive) | > 100 µM (inactive) | > 100 µM (inactive) | 38.2 µM (inactive) |  |  |  |  | 
2 | NCCCC(N/C=C1/N=C(c2ccccc2)OC1=O)C(=O)O (stereo unspecified) | > 100 µM (inactive) | > 100 µM (inactive) | > 100 µM (inactive) | > 100 µM (inactive) | 40.8 µM (inactive) | > 100 µM (inactive) | 63.4 µM (inactive) | > 100 µM (inactive) | > 100 µM (inactive) | > 100 µM (inactive) |  | > 100 µM (inactive) | > 100 µM (inactive) | > 100 µM (inactive) | > 100 µM (inactive) |  |  |  |  | 
3 | COC(=O)c1cc2c3c(ccc2[nH]1)N(C(=O)c1cc2c4c(ccc2[nH]1)N(C(=O)c1cc2c5c(ccc2[nH]1)N(C(N)=O)CC5)CC4)CC3 | 2.03 µM (inactive) | 0.845 µM (active) | > 63.8 µM (inactive) | 2.29 µM (inactive) | 1.61 µM (inactive) | 13.1 µM (inactive) | 6.62 µM (inactive) | 2.97 µM (inactive) | 3.6 µM (inactive) | 2.17 µM (inactive) | 6.82 µM (inactive) | 2.72 µM (inactive) | 7.85 µM (inactive) | > 52.7 µM (inactive) | 2.07 µM (inactive) |  |  |  |  | 
4 | COc1cc(C2(C)SCCCS2)cc(OC)c1OC | > 100 µM (inactive) | > 100 µM (inactive) | > 100 µM (inactive) | > 100 µM (inactive) | > 100 µM (inactive) | > 100 µM (inactive) | > 100 µM (inactive) | > 100 µM (inactive) | > 100 µM (inactive) | > 100 µM (inactive) | > 100 µM (inactive) | > 100 µM (inactive) | > 100 µM (inactive) | > 100 µM (inactive) | > 100 µM (inactive) |  |  |  |  | 
5 | Cc1ccc(/C=C(\NC(=O)c2ccccc2)c2nc3ccccc3[nH]2)cc1 | 28.3 µM (inactive) | 83.6 µM (inactive) | 47.1 µM (inactive) | > 100 µM (inactive) | 42.2 µM (inactive) | > 100 µM (inactive) | 23.9 µM (inactive) | 61 µM (inactive) | > 100 µM (inactive) | 60.8 µM (inactive) | 40.6 µM (inactive) | 48.2 µM (inactive) | 50.4 µM (inactive) | > 100 µM (inactive) | 12.8 µM (inactive) |  |  |  |  | 
6 | COC(=O)C1CC(C(=O)OC)c2nc3cc(C)ccc3nc21 (stereo unspecified) | > 100 µM (inactive) | > 100 µM (inactive) | > 100 µM (inactive) | > 100 µM (inactive) | > 100 µM (inactive) | > 100 µM (inactive) | > 100 µM (inactive) | > 100 µM (inactive) | > 100 µM (inactive) | > 100 µM (inactive) | > 100 µM (inactive) | > 100 µM (inactive) | > 100 µM (inactive) | > 100 µM (inactive) | > 100 µM (inactive) |  |  |  |  | 
7 | ClC(/N=N/c1ccccc1)=N/Nc1ccccc1 | > 100 µM (inactive) |  | 51.1 µM (inactive) | > 100 µM (inactive) | 61.9 µM (inactive) | 21.3 µM (inactive) | > 100 µM (inactive) | > 100 µM (inactive) | > 100 µM (inactive) | 39.2 µM (inactive) | 60.7 µM (inactive) | > 100 µM (inactive) | 31.8 µM (inactive) | > 100 µM (inactive) |  |  |  |  |  | 
8 | CC(=O)c1[nH]c(Nc2ccc(C)cc2)c(C(=S)Nc2ccccc2)c1N | 13 µM (inactive) | 16.2 µM (inactive) |  | 20.8 µM (inactive) | 15.6 µM (inactive) | 17.3 µM (inactive) | 15.8 µM (inactive) | 18.8 µM (inactive) | 29.2 µM (inactive) | 14.5 µM (inactive) | 15.9 µM (inactive) | 23.9 µM (inactive) | 28.4 µM (inactive) | 32.9 µM (inactive) | 15.6 µM (inactive) | 15 µM (inactive) | 15.7 µM (inactive) | 16.5 µM (inactive) | 16.3 µM (inactive) | 15.6 µM (inactive)

From ChEMBL document CHEMBL1201862, “PubChem BioAssay data set” (2004)
